PubChem BioAssay (NCI)
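Method: 48-hour compound exposure of cells in 96-well plates, five concentrations, linear interpolation of endpoints. Definition used: TGI = concentration required for complete inhibition of growth.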

Key:
Assay in all cases: NCI anticancer screen, dose series, 48 h
[1] = tested on: HCT-116 colon
[2] = tested on: NCI-H226 lung
[3] = tested on: OVCAR-3 ovarian
[4] = tested on: U251 CNS
[5] = tested on: EKVX NSCLC
[6] = tested on: SK-MEL-28 melanoma
[7] = tested on: HS 578T breast
[8] = tested on: HL-60(TB) leukemia
[9] = tested on: DU-145 prostate
[10] = tested on: A498 renal
[11] = tested on: BT-549 breast

C=CC1(c2ccc3ccccc3c2)OCC(CC)O1 (centres undefined)
TGI [1]: > 100 µM
TGI [2]: 81.4 µM
TGI [3]: > 100 µM
TGI [4]: > 100 µM
TGI [5]: > 100 µM
TGI [6]: > 100 µM
TGI [7]: 77 µM
TGI [8]: 23.3 µM
TGI [9]: > 100 µM

O=C(CC1(O)C(=O)Nc2c(Cl)cc(Cl)cc21)c1ccc(F)cc1 (centres undefined)
TGI [1]: > 100 µM
TGI [2]: > 100 µM
TGI [3]: 68.6 µM
TGI [4]: 97.1 µM
TGI [5]: > 100 µM
TGI [6]: > 100 µM

COC(=O)[C@]12CSC[C@H]1C[C@H](c1cccc3ccccc13)N2
TGI [1]: > 100 µM
TGI [10]: > 100 µM
TGI [2]: > 100 µM
TGI [3]: > 100 µM
TGI [4]: > 100 µM
TGI [5]: > 100 µM
TGI [6]: > 100 µM
TGI [11]: > 100 µM
TGI [9]: > 100 µM

CCCCC1(O)CC2CC1C(C)C2(C)C (centres undefined)
TGI [1]: > 100 µM
TGI [2]: > 100 µM
TGI [3]: > 100 µM
TGI [4]: > 100 µM
TGI [5]: > 100 µM
TGI [6]: > 100 µM
TGI [11]: > 100 µM
TGI [7]: > 100 µM
TGI [8]: 64.6 µM
TGI [9]: > 100 µM

CCCCCCCCCCCCC(Br)C(C)=O (centres undefined)
TGI [1]: > 100 µM
TGI [10]: > 100 µM
TGI [2]: > 100 µM
TGI [3]: > 100 µM
TGI [4]: > 100 µM
TGI [5]: > 100 µM
TGI [6]: > 100 µM
TGI [8]: > 100 µM

COc1cc(CNc2cnc3ccc(N)cc3n2)cc(OC)c1OC
TGI [1]: > 100 µM
TGI [10]: > 100 µM
TGI [2]: > 100 µM
TGI [3]: > 100 µM
TGI [4]: > 100 µM
TGI [5]: > 100 µM
TGI [6]: > 100 µM
TGI [8]: > 100 µM

CN(C)C(=NC#N)N(Cc1ccccc1)Cc1ccccc1
TGI [1]: > 100 µM
TGI [10]: > 100 µM
TGI [2]: > 100 µM
TGI [3]: > 100 µM
TGI [4]: > 100 µM
TGI [5]: > 100 µM
TGI [6]: > 100 µM
TGI [8]: > 100 µM

O=C(O)CCN(CCCN(CCC(=O)O)CCC(=O)O)CCC(=O)O
TGI [1]: > 100 µM
TGI [10]: > 100 µM
TGI [3]: > 100 µM
TGI [4]: > 100 µM
TGI [5]: > 100 µM
TGI [6]: > 100 µM
TGI [8]: > 100 µM

Cc1ccc(C(=O)Oc2ccc(/C=C3\CCC/C(=C\c4ccc(OC(=O)c5ccc(C)cc5)cc4)C3=O)cc2)cc1
TGI [1]: > 100 µM
TGI [3]: > 100 µM
TGI [4]: > 100 µM
TGI [5]: > 100 µM
TGI [6]: > 100 µM
TGI [11]: > 100 µM
TGI [7]: > 100 µM
TGI [8]: > 100 µM
TGI [9]: > 100 µM

CCOC(=O)C1SC(=Nc2ccc(Cl)cc2Cl)N=C1C (centres undefined)
TGI [1]: > 100 µM
TGI [10]: > 100 µM
TGI [2]: > 100 µM
TGI [3]: > 100 µM
TGI [4]: > 100 µM
TGI [5]: > 100 µM
TGI [6]: > 100 µM
TGI [8]: > 100 µM

NC(=O)Cn1c(=O)oc2cc(C(=O)CN3CCOCC3)ccc21
TGI [1]: > 100 µM
TGI [10]: > 100 µM
TGI [2]: > 100 µM
TGI [3]: > 100 µM
TGI [4]: > 100 µM
TGI [5]: > 100 µM
TGI [6]: > 100 µM
TGI [7]: > 100 µM
TGI [8]: > 100 µM
TGI [9]: > 100 µM

Cc1ccccc1Nc1nc(NNC(=O)Cc2ccccc2)nc(NNC(=O)c2ccncc2)n1
TGI [4]: > 10 µM
TGI [5]: > 10 µM
TGI [6]: > 10 µM
TGI [11]: > 10 µM
TGI [7]: > 10 µM
TGI [8]: > 10 µM
TGI [9]: > 10 µM

CS(=O)(=O)O[C@H]1[C@H](O)c2ccccc2[C@@H]1N=[N+]=[N-]
TGI [1]: > 100 µM
TGI [10]: > 100 µM
TGI [2]: > 100 µM
TGI [3]: > 100 µM
TGI [4]: > 100 µM
TGI [5]: > 100 µM
TGI [6]: > 100 µM
TGI [11]: > 100 µM
TGI [8]: > 100 µM
TGI [9]: > 100 µM

CCOC(=O)C(NC(=O)CC)(Nc1ccc(F)cc1F)C(F)(F)F (centres undefined)
TGI [1]: > 100 µM
TGI [10]: > 100 µM
TGI [4]: > 100 µM
TGI [5]: > 100 µM
TGI [6]: > 100 µM
TGI [11]: > 100 µM
TGI [7]: > 100 µM
TGI [8]: > 100 µM

C/C=C\C(CC(=O)OC)CC(=O)N(CCC1CN(S(=O)(=O)C(F)(F)F)c2ccccc21)Cc1ccc(OC)cc1OC (centres undefined)
TGI [1]: > 100 µM
TGI [10]: > 100 µM
TGI [2]: > 100 µM
TGI [3]: > 100 µM
TGI [4]: > 100 µM
TGI [5]: > 100 µM
TGI [6]: > 100 µM
TGI [11]: > 100 µM

Nc1cc(Cl)ccc1SSc1ccc(Cl)cc1N
TGI [1]: 21.7 µM
TGI [2]: 15.4 µM
TGI [4]: 15.4 µM
TGI [5]: 24.5 µM
TGI [6]: 40.6 µM
TGI [11]: 35.1 µM
TGI [7]: 46.7 µM
TGI [8]: > 100 µM
TGI [9]: 29.2 µM

O=C(O)C12CCC(CC1=O)C2 (centres undefined)
TGI [2]: > 100 µM
TGI [3]: > 100 µM
TGI [4]: > 100 µM
TGI [5]: > 100 µM
TGI [6]: > 100 µM
TGI [11]: > 100 µM
TGI [7]: > 100 µM
TGI [8]: > 100 µM

CCOC(=O)c1sc2nc1CSc1sc(=S)sc1SCc1nc(sc1C(=O)OCC)-c1nc(c(C(=O)OCC)s1)CSc1sc(=S)sc1SCc1nc-2sc1C(=O)OCC
TGI [1]: > 10 µM
TGI [3]: > 10 µM
TGI [4]: > 10 µM
TGI [5]: > 10 µM
TGI [6]: > 10 µM
TGI [11]: > 10 µM
TGI [7]: > 10 µM
TGI [8]: > 10 µM

O=S(=O)(CCC[C@H]1[C@@H](CCOCc2ccccc2)C2CCCN1O2)c1ccccc1 (some centres undefined)
TGI [1]: > 100 µM
TGI [10]: > 100 µM
TGI [2]: > 100 µM
TGI [3]: > 100 µM
TGI [4]: > 100 µM
TGI [5]: > 100 µM
TGI [6]: > 100 µM
TGI [11]: > 100 µM
TGI [7]: > 100 µM

CCOC(=O)N/N=C(\CC)OCC
TGI [1]: > 100 µM
TGI [3]: > 100 µM
TGI [5]: > 100 µM
TGI [11]: > 100 µM
TGI [7]: > 100 µM
TGI [8]: > 100 µM
TGI [9]: > 100 µM

CC(C)OP(=O)(OC(C)C)C(=NCCN=C(NNc1ccccc1[N+](=O)[O-])P(=O)(OC(C)C)OC(C)C)NNc1ccccc1[N+](=O)[O-]
TGI [1]: > 100 µM
TGI [10]: > 100 µM
TGI [2]: 67.4 µM
TGI [3]: > 100 µM
TGI [4]: 83.4 µM
TGI [5]: > 100 µM
TGI [6]: > 100 µM
TGI [8]: 74.5 µM

COC(=O)Cn1c(=O)oc2nc(-c3ccccc3)cc(C(F)(F)F)c21
TGI [1]: > 100 µM
TGI [10]: > 100 µM
TGI [2]: > 100 µM
TGI [3]: > 100 µM
TGI [4]: > 100 µM
TGI [5]: > 100 µM
TGI [6]: > 100 µM
TGI [11]: > 100 µM
TGI [9]: > 100 µM

COC(=O)C(c1ccc(OC)cc1)N1C(=O)[C@@H](NC(=O)c2ccccc2)[C@H]1[C@@H](C)O (some centres undefined)
TGI [1]: > 100 µM
TGI [2]: > 100 µM
TGI [3]: > 100 µM
TGI [4]: > 100 µM
TGI [5]: > 100 µM
TGI [6]: > 100 µM
TGI [8]: > 100 µM

S=C1CC(c2ccccc2)Sc2cc(Cl)ccc2N1 (centres undefined)
TGI [1]: 17.2 µM
TGI [2]: 32.7 µM
TGI [3]: 8.49 µM
TGI [4]: 17.7 µM
TGI [5]: > 100 µM
TGI [6]: 51.8 µM
TGI [11]: > 100 µM
TGI [7]: 84 µM
TGI [9]: > 100 µM
